Data from patent US9868734B2, “Conjugate of benzofuranone and indole or azaindole, and preparation and uses thereof” (Luoda Biosciences, Inc., priority 2013, dated 2018).

Experiments:
[1] = tested on: human lung adenocarcinoma epithelial cell line A549; test: MTT assay, inhibition of tumor cell growth (A549); assay type: cell-based; conditions: 72 hours incubation, read-out: IC50 on the tumor cells A549
Description: (§1) human hepatocellular carcinoma cell line HepG-2, human lung adenocarcinoma epithelial cell line A549
(§2) Tumor cells were seeded in RPM11640 medium containing 10% calf serum, incubated at 37° C., 5% CO2 in CO2 incubator, and passaged every 2-3 days. Cells at logarithmic growth phase were used for this experiment.
(§3) The cells at logarithmic growth phase were formulated into suspension. The cell viability by trypan blue staining was more than 98%. The cell suspension was divided into several groups: 1 as blank control group (cell suspension plus solvent DMSO); and 2 as experimental groups (cell suspension plus compounds to be tested).
(§4) The drugs were formulated into a stock solution in DMSO, and the concentration of the stock solution was 20 mmol (used within 4 hours). In the experiment, the work solution of the drugs was diluted with RPMI1640 medium containing 10% calf serum under aseptic condition, to a final concentration of […]. The drug concentrations were increased by 2 times (1.25-20 μM).
(§5) The cells in logarithmic growth phase were selected, centrifuged, counted, and formulated into a cell suspension (2.5×10^4/ml) with RPMI1640 medium containing 10% calf serum. The cell suspension were inoculated into 96-well plates at a density of 5000 cells/200 μl per well, incubated for 24 hours at 37° C., 5% CO2. According to the above concentration of the drug, the cells were inoculated to 6 groups (including one control group), with 8 wells per group. After incubating for 72 hours, the viability of cells was measured by MTT assay. The absorbance value (A) was measured with detection wavelength at 540 nm, reference wavelength at 630 nm. The inhibitory rate (I) was calculated by the following equation, where T was the absorbance value of the experimental groups, and C was the absorbance value of the blank control group: I=(1−T/C)×100%
(§6) Equation of regression line was drawn from concentration-inhibitory rate curve, from which the IC50 of tested sample was calculated.

[2] = tested on: human hepatocellular carcinoma cell line HepG-2; test: MTT assay, inhibition of tumor cell growth (HepG2); assay type: cell-based; conditions: 72 hours incubation, read-out: IC50 on the tumor cells HepG2
Description: as §1, §2, §3, §4, §5, §6

SMILES	IC50 [1] [µM]	IC50 [2] [µM]
O=C1Nc2ccccc2C1=C1Oc2ccccc2C1=O [Compound 1]	40 ± 1.4	> 100
O=C1Nc2c(F)cccc2C1=C1Oc2ccccc2C1=O [Compound 2]	> 100	–
CCN1C(=O)C(=C2Oc3ccccc3C2=O)c2ccccc21 [Compound 3]	21.9 ± 0.9	26.4 ± 1.1
CCN1C(=O)C(=C2Oc3ccccc3C2=O)c2cccc(F)c21 [Compound 4]	9.5 ± 2.1	31.5 ± 2.9
CCN1C(=O)C(=C2Oc3ccccc3C2=O)c2cc(Cl)ccc21 [Compound 5]	11.5 ± 1	87 ± 2.1
CCN1C(=O)C(=C2Oc3ccccc3C2=O)c2ccc(Cl)cc21 [Compound 6]	11.9 ± 1.4	60 ± 1.7
CCN1C(=O)C(=C2Oc3ccccc3C2=O)c2cc(C)ccc21 [Compound 7]	8 ± 1.2	19 ± 1.6
CC(C)N1C(=O)C(=C2Oc3ccccc3C2=O)c2ccccc21 [Compound 8]	10 ± 1.4	32.2 ± 2.4
CC(C)N1C(=O)C(=C2Oc3ccccc3C2=O)c2cc(F)ccc21 [Compound 9]	18.5 ± 1.8	25 ± 1
CC(C)N1C(=O)C(=C2Oc3ccccc3C2=O)c2cccc(F)c21 [Compound 10]	8.1 ± 0.6	28.5 ± 1.3
CC(C)N1C(=O)C(=C2Oc3ccccc3C2=O)c2cc(Cl)ccc21 [Compound 11]	8.5 ± 1.6	45 ± 1.9
CC(C)N1C(=O)C(=C2Oc3ccccc3C2=O)c2ccc(Cl)cc21 [Compound 12]	14 ± 1.7	26 ± 2.7
Cc1ccc2c(c1)C(=C1Oc3ccccc3C1=O)C(=O)N2C(C)C [Compound 13]	11 ± 1.2	42 ± 1.8
O=C1C(=C2C(=O)N(Cc3ccccc3)c3ccccc32)Oc2ccccc21 [Compound 14, N1-benzyl-1′-oxo-indirubin]	7 ± 1.6	24 ± 1.5
O=C1C(=C2C(=O)N(Cc3ccccc3)c3ccc(F)cc32)Oc2ccccc21 [Compound 15]	7.4 ± 1.7	34 ± 0.9
O=C1C(=C2C(=O)N(Cc3ccccc3)c3ccc(Cl)cc32)Oc2ccccc21 [Compound 16]	16 ± 2	61 ± 2.9
Cc1ccc2c(c1)C(=C1Oc3ccccc3C1=O)C(=O)N2Cc1ccccc1 [Compound 17]	8 ± 2.3	25 ± 2.7
CCN1C(=O)C(=C2Oc3ccccc3C2=O)c2cc(F)ccc21 [Compound 18]	7.05 ± 1.1	17 ± 1.9
CCN1C(=O)C(=C2Oc3ccc(Cl)cc3C2=O)c2ccccc21 [Compound 19]	16 ± 1.5	8 ± 1.5
CCN1C(=O)C(=C2Oc3ccc(Cl)cc3C2=O)c2cccc(F)c21 [Compound 20]	1.8 ± 1	12 ± 1.4
CCN1C(=O)C(=C2Oc3ccc(Cl)cc3C2=O)c2cc(Cl)ccc21 [Compound 21]	4 ± 2.4	12 ± 1.9
CCN1C(=O)C(=C2Oc3ccc(Cl)cc3C2=O)c2ccc(Cl)cc21 [Compound 22]	2.7 ± 1.2	7.1 ± 1.1
CC(C)N1C(=O)C(=C2Oc3ccc(Cl)cc3C2=O)c2cc(Cl)ccc21 [Compound 23]	3.1 ± 0.8	6.9 ± 0.8
CC(C)N1C(=O)C(=C2Oc3ccc(Cl)cc3C2=O)c2ccc(Cl)cc21 [Compound 24]	3.8 ± 1.5	12.1 ± 0.9
O=C1Nc2ccccc2C1=C1Oc2ccccc2C1=NO [Compound 25]	3.7 ± 0.9	5 ± 0.9
O=C1Nc2c(F)cccc2C1=C1Oc2ccccc2C1=NO [Compound 26]	5.4 ± 0.6	29 ± 1.8
CCN1C(=O)C(=C2Oc3ccccc3C2=NO)c2ccccc21 [Compound 27]	7.1 ± 0.7	19 ± 1.1
CCN1C(=O)C(=C2Oc3ccccc3C2=NO)c2cccc(F)c21 [Compound 28]	7 ± 1.3	30 ± 1.5

SMILES	IC50 [1] [µM]	IC50 [2] [µM]
CCN1C(=O)C(=C2Oc3ccccc3C2=NO)c2cc(Cl)ccc21 [Compound 29]	3.6 ± 0.2	7.7 ± 1.2
CCN1C(=O)C(=C2Oc3ccccc3C2=NO)c2ccc(Cl)cc21 [Compound 30]	3.8 ± 0.5	3 ± 0.5
CCN1C(=O)C(=C2Oc3ccccc3C2=NO)c2cc(C)ccc21 [Compound 31]	1.2 ± 0.8	2.8 ± 0.4
CC(C)N1C(=O)C(=C2Oc3ccccc3C2=NO)c2ccccc21 [Compound 32]	10.5 ± 1.3	12.8 ± 1.6
O=C1C(=C2Oc3ccccc3C2=NO)c2ccccc2N1C1OC(CO)C(O)C1O (stereo not shown) [Compound 33]	14.8 ± 1.2	21 ± 0.9
CC(C)N1C(=O)C(=C2Oc3ccccc3C2=NO)c2cccc(F)c21 [Compound 34]	14.1 ± 1.5	51.1 ± 2.6
CC(C)N1C(=O)C(=C2Oc3ccccc3C2=NO)c2cc(Cl)ccc21 [Compound 35]	17.5 ± 1.8	29.2 ± 1.4
CC(C)N1C(=O)C(=C2Oc3ccccc3C2=NO)c2ccc(Cl)cc21 [Compound 36]	10 ± 0.6	31.5 ± 1.8
Cc1ccc2c(c1)C(=C1Oc3ccccc3C1=NO)C(=O)N2C(C)C [Compound 37]	9 ± 2.1	41 ± 1.7
O=C1C(=C2Oc3ccccc3C2=NO)c2ccccc2N1Cc1ccccc1 [Compound 38, N1-benzyl-1′-oxo-indirubin-3′-oxime]	9.05 ± 1.4	32.2 ± 1.5
O=C1C(=C2Oc3ccccc3C2=NO)c2cc(F)ccc2N1Cc1ccccc1 [Compound 39]	33 ± 2.9	19 ± 2.1
O=C1C(=C2Oc3ccccc3C2=NO)c2cc(Cl)ccc2N1Cc1ccccc1 [Compound 40]	14 ± 1.2	> 100
Cc1ccc2c(c1)C(=C1Oc3ccccc3C1=NO)C(=O)N2Cc1ccccc1 [Compound 41]	8.3 ± 1.7	45 ± 3
CCN1C(=O)C(=C2Oc3ccccc3C2=NO)c2cc(F)ccc21 [Compound 42]	15 ± 1.2	28 ± 2.5
CCN1C(=O)C(=C2Oc3ccc(Cl)cc3C2=NO)c2ccccc21 [Compound 43]	14 ± 1.7	42 ± 4.2
CCN1C(=O)C(=C2Oc3ccc(Cl)cc3C2=NO)c2cccc(F)c21 [Compound 44]	> 100	> 100
CCN1C(=O)C(=C2Oc3ccc(Cl)cc3C2=NO)c2cc(Cl)ccc21 [Compound 45]	4.8 ± 0.6	3.6 ± 0.2
CCN1C(=O)C(=C2Oc3ccc(Cl)cc3C2=NO)c2ccc(Cl)cc21 [Compound 46]	3.4 ± 0.7	3.8 ± 0.5
CC(C)N1C(=O)C(=C2Oc3ccccc3C2=NO)c2cc(Cl)ccc21 [Compound 47]	1.7 ± 0.8	1.6 ± 0.8
CC(C)N1C(=O)C(=C2Oc3ccc(Cl)cc3C2=NO)c2ccc(Cl)cc21 [Compound 48]	1.9 ± 0.4	2.6 ± 0.4
CON=C1C(=C2C(=O)Nc3ccccc32)Oc2ccccc21 [Compound 49]	9.5 ± 0.6	4.8 ± 0.7
CON=C1C(=C2C(=O)Nc3c(F)cccc32)Oc2ccccc21 [Compound 50]	7.7 ± 1.2	2.9 ± 0.5
CCN1C(=O)C(=C2Oc3ccccc3C2=NOC)c2ccccc21 [Compound 51]	3.9 ± 0.5	1.7 ± 0.6
CCN1C(=O)C(=C2Oc3ccccc3C2=NOC)c2cccc(F)c21 [Compound 52]	2.8 ± 0.4	2.1 ± 0.2
CON=C1C(=C2C(=O)N(C3OC(CO)C(O)C(O)C3O)c3ccc(Cl)cc32)Oc2ccccc21 (stereo not shown) [Compound 53]	2.1 ± 0.5	16 ± 1.5
CON=C1C(=C2C(=O)N(C(C)C)c3cc(Cl)ccc32)Oc2ccccc21 [Compound 54]	12 ± 1.4	1.8 ± 1.9
CON=C1C(=C2C(=O)N(C(C)C)c3ccc(C)cc32)Oc2ccccc21 [Compound 55]	12 ± 1.9	4 ± 2.4
